Test results published in patent US9249097B2, “3-aminocarbazole compound, pharmaceutical composition containing it and preparation method therefor” (AZIENDE CHIM. RIUN. ANG. FRANC. A.C.R.A.F. S.p.A., priority 2008, dated 2016).

Key:
in vitro = settings: human, Caco-2, pH 7.4
Description: This test allows evaluation of the amount absorbed by the intestinal barrier of the compounds of the invention and of the comparative compounds using the Caco-2 cell line as an in vitro model of intestinal barrier. The permeability test on Caco-2 cells represents an in vitro system approved for predicting and estimating the in vivo intestinal absorption of a drug. When the Caco-2 cells are cultured on a porous filter for about 21 days, they have the capacity to differentiate into enterocytes.
The compounds undergoing the test were diluted from a 10 mM stock solution in HBSS to a final concentration of 10 μM. The system consisted of a confluent cellular monolayer in culture for 21-28 days.
Each compound was tested in triplicate, bidirectionally, at pH 7.4, from the apical to the basolateral compartment (A→B) and from the basolateral to the apical compartment (B→A).
The samples collected at the given time were analysed by HPLC-MS/MS, using an electrospray ion source in positive ionization and SRM (Single Reaction Mode). The chromatographic conditions entailed the use of an XDB-C18 column (2.1×50 mm, Agilent) with a gradient from 5% to 91% of acetonitrile in water containing 0.1% formic acid (total runtime equal to 6.5 minutes) and a flow rate of 0.5 ml/minute. Metoprolol was used as the internal standard.
The concentration data were used to calculate the apparent permeability values (Papp), and the mean and standard deviation of the Papp were calculated.
The flux ratio was calculated as Papp(B→A)/Papp(A→B). The recovery percentage was calculated as: (amount in the receiving compartment+amount in the donor compartment)/nominal amount
The area of the peaks of the test compounds were integrated and the results were expressed as the analyte area/internal standard area ratio and corrected for the dilution factor used during the preparation of the sample. The apparent permeability coefficients were calculated using the following equation: […]
in which: • VA volume in the receiving well (0.25 mL for the test from A→B, 0.075 mL for the test from B→A) • Area area of the membrane surface (0.11 cm^2) • Time total transport time (3600 seconds)

[1] = Metabolic stability in human hepatic microsomes; settings: 1 μM
Description: (§1) This test allows evaluation of the metabolic stability of the compounds of the invention and of the comparative compounds in rats and in man.
(§2) The compounds to be analysed, at a final concentration of 0 and 1 μM, were placed in a suspension containing the pool of microsomes at a final concentration of 0.5 mg/mL in a final volume of 200 μL, in 96-well plates. The test was standardized with phosphate buffer (75 mM, pH 7.4) and with the NADPH regenerating system (MgCl2: 3.3 mM; G6P: 3.3 mM; G6PD: 0.4 U/mL; NADP+: 1.3 mM). […] The samples were incubated at 37° C. in a humidified incubator. At time 0 and after 60 minutes, 100 μL of acetonitrile containing the internal standard (0.2 μM of metoprolol and 0.4 μM of diclofenac) were added to stop the reaction.
(§3) The samples were centrifuged before analysis. The HPLC/MS/MS analysis was performed using an electrospray ion source in positive ionization and SRM (Single Reaction Mode). The chromatographic conditions entail the use of an XDB-C18 column (2.1×50 mm, Agilent) and a gradient from 5% to 91% of acetonitrile in water containing 0.1% formic acid (total runtime equal to 6 minutes); the flow rate was 0.5 ml/minute.
(§4) The areas of the peaks for the test compounds were integrated and the results expressed as the analyte area/internal standard (PAR) area ratio. For each time, two samples were analysed and the mean value calculated. The percentage of the value of remaining compound was calculated as: % unmetabolized compound=100*(mean PARTfinal/mean PART0).

[2] = In vivo bioavailability, oral cassette dosing; settings: oral 5 mg/kg; for Cmax / Tmax / AUC(0-t): plasma; for AUC(0-t): first seven hours, read-out: AUC0-7
Description: This test allowed evaluation of the in vivo bioavailability of the compounds of the invention, thus making it possible to evaluate and compare the pharmacokinetic profile of the test compounds.
The tests were performed using the cassette method, i.e. by administering orally several products simultaneously to the same animal, at a dose of 5 mg/kg. The products were suspended in methylcellulose (MTC). The treated animals were catheterized for the serial collection of blood samples performed by means of an automatic sampling system. The plasmatic concentrations of the products were measured by HPLC/MS/MS. The profiles of the plasmatic concentrations over time made it possible to evaluate the relative bioavailability of the test products in terms of rate (tmax and Cmax) and […] (AUC). The slope of the curve in the end portion also allowed a comparative evaluation of the rate of elimination of the compounds from the plasma, the slower the rate, the lower the slope. Three animals were treated for each combination of compounds.
The results, expressed as the Cmax, i.e. as the maximum concentration of drug reached in the plasma, Tmax, i.e. the time required to reach the maximum drug concentration in the plasma, and AUC0-7, i.e. the area under the curve of the plasmatic concentrations of drug over time, measured in the first seven hours after administration, are given in Table 5.

[3] = Metabolic stability in rat hepatic microsomes; settings: 1 μM
Description: as §1, §2, §3, §4

production of PGE2 = test: Inhibition of PGE2 production in IL-1β-stimulated A549 cells (EIA); format: cell-based; settings: Homo sapiens, IL-1β 1 ng/ml, 22 hours
Description: (§5) This test allows evaluation of the inhibitory capacity on the production of the PGE2 and the selectivity relative to the production of the PGF2α.
(§6) The cell line A549, human pulmonary adenocarcinoma, was used, which is particularly sensitive to stimulation with pro-inflammatory cytokines, for instance IL-1β, and, in response to this stimulation, is particularly active in the production and release of two prostanoids: PGE2 and PGF2α (Thoren S. Jakobsson P-J, 2000).
(§7) The cells were stimulated with IL-1β (1 ng/ml) and simultaneously treated with the test compound for 22 hours in an appropriate culture medium (DMEM—Dulbecco's Modified Eagle's Medium) supplemented with 5% foetal calf serum and L-glutamine (4 mM final) in an incubator at 37° C. and at a CO2 concentration of 5%.
(§8) After the incubation, the amount of PGE2 and PGF2α produced and released into the supernatant were assayed using an EIA kit (produced and sold by Cayman Chemicals, Ann Arbor, Mich., USA).
(§9) The comparative compound used was indomethacin at a concentration of 10 nM (Sigma-Aldrich), a non-steroidal anti-inflammatory drug that inhibits in equal measure both PGE2 and PGF2α.
(§10) The results, expressed as the IC50 values, i.e. as the concentration of compound that inhibits 50% of the production of PGE2 and of PGF2α relative to the cells that have been stimulated, but not treated with the same compound, are given in Table 2. The inactivity or the reduced activity of the compound on the biosynthesis of PGF2α is an indication of selectivity towards the production of PGE2 and thus of selective inhibition of mPGES-1.

production of PGF2α = test: Inhibition of PGF2α production in IL-1β-stimulated A549 cells (EIA); format: cell-based; settings: Homo sapiens, IL-1β 1 ng/ml, 22 hours
Description: as §5, §6, §7, §8, §9, §10

mice = test: Acetic acid-induced writhing in mice; format: in vivo; settings: for No. of writhes: 20 minutes after acetic acid; for % of inhibition: writhes vs vehicle
Description: The test compound was evaluated in the model of acetic acid-induced writhing in mice (Stock J. L. et al., J. Clin. Inv. 2001, 107: 325-331). This test allows evaluation of the antinociceptive activity of the compounds of the invention in a model of inflammatory pain.
Female CD-1 mice weighing 25-30 g were used for the test. The animals were treated intraperitoneally with the test compound (0.1-10 mg/kg) suspended in methylcellulose (MTC). The control animals were treated with the vehicle alone (MTC) via the same route.
Half an hour after the treatment, an intraperitoneal injection of acetic acid (0.7% v/v in physiological saline, 16 μl/g of body weight) was given to the animals to induce inflammatory pain and to check the effects of the test compound on the nociceptive response.
Immediately after the administration of acetic acid and for the following 20 minutes the number of writhes was measured, which represents the parameter for evaluation of the nociceptive response.

[4] = Sprague-Dawley, rat, microsomes, 1 h, pH 7.4
[5] = microsomes 0.5 mg/mL, 60 minutes, 37° C.

| SMILES | Papp at 3600 seconds, 10 μM (in vitro) [×10⁻⁶ cm/s] | % unmetabolized compound, Man ([1]; human, microsomes, 1 h, pH 7.4) [%] | % unmetabolized compound, Rat [3, 4] [%] | IC50 (production of PGE2) [nM] | IC50 (production of PGF2α) [nM] | melting point [°C] | other results |
| --- | --- | --- | --- | --- | --- | --- | --- |
| CC(C)(O)CCn1c2ccccc2c2cc(NC(=O)c3ccccc3C(F)(F)F)ccc21 [Compound 3, N-[9-(3-hydroxy-3-methylbutyl)-9H-carbazol-3-yl]-2-(trifluoromethyl)benzamide] | > 20 | 77 | 65 | 1400 | > 100000 | 188 to 189 | bioavailability / absorption in words [2]: good bioavailability characteristics; Cmax [2]: 457 ng/mL; Tmax [2]: 1.8 h; AUC(0-t) [2]: 2670 ng·h/mL |
| COc1ccc2c(c1)c(CC(=O)O)c(C)n2C(=O)c1ccc(Cl)cc1 [Indomethacin, indomethacin, reference compound] |  |  |  | 5 | 3 |  |  |
| C[C@H]1O[C@@H](O[C@H]2[C@@H](O)C[C@H](O[C@H]3[C@@H](O)C[C@H](O[C@H]4CC[C@@]5(C)[C@H](CC[C@@H]6[C@@H]5C[C@@H](O)[C@]5(C)[C@@H](C7=CC(=O)OC7)CC[C@]65O)C4)O[C@@H]3C)O[C@@H]2C)C[C@H](O)[C@@H]1O [Digoxin, digoxin, reference compound] | < 2 |  |  |  |  |  |  |
| O=C(Nc1ccc2c(c1)c1ccccc1n2CCO)c1ccccc1Cl [Compound 5, 2-chloro-N-[9-(2-hydroxyethyl)-9H-carbazol-3-yl]benzamide] | > 20 | 76 | 63 |  |  | 168 to 169 |  |
| C[C@]12CC[C@H]3[C@@H](CCC4=CC(=O)CC[C@@]43C)[C@@H]1CC[C@@H]2O [Testosterone, testosterone, reference compound] |  |  |  |  |  |  | % unmetabolized compound, Man [1, 5]: 27%; % unmetabolized compound, Rat [3, 5]: 0% |
| CC(=O)Cn1c2ccccc2c2cc(NC(=O)c3ccccc3C(F)(F)F)ccc21 [Compound 4, N-[9-(2-oxopropyl)-9H-carbazol-3-yl]-2-(trifluoromethyl)benzamide] | > 20 | 7 | 58 | 5600 | > 100000 | 223 to 226 |  |
| CC(=O)CC(c1ccccc1)c1c(O)c2ccccc2oc1=O (stereo not drawn) [Warfarin, warfarin, reference compound] |  | 103 | 97 |  |  |  |  |
| CC(C)(O)CCn1c2ccccc2c2cc(NC(=O)c3ccccc3Cl)ccc21 [Compound 6, 2-chloro-N-[9-(3-hydroxy-3-methylbutyl)-9H-carbazol-3-yl]benzamide] | > 20 | 65 | 74 | 600 | > 100000 | 120 to 124 |  |
| O=C(Nc1ccc2c(c1)c1ccccc1n2CCO)c1ccccc1C(F)(F)F [Compound 1, N-[9-(2-hydroxyethyl)-9H-carbazol-3-yl]-2-(trifluoromethyl)benzamide] | > 20 | 81 | 58 | 2900 | > 100000 | 176 to 177 | No. of writhes (mice; 0.1 mg/kg intraperitoneally): 38.4 ± 3.99; % of inhibition (mice; 0.1 mg/kg intraperitoneally): 21%; No. of writhes (mice; 1 mg/kg intraperitoneally): 31.5 ± 5.72; % of inhibition (mice; 1 mg/kg intraperitoneally): 35%; No. of writhes (mice; 10 mg/kg intraperitoneally): 12.8 ± 2.46; % of inhibition (mice; 10 mg/kg intraperitoneally): 74%; bioavailability / absorption in words [2]: good bioavailability characteristics; Cmax [2]: 1200 ng/mL; Tmax [2]: 1.5 h; AUC(0-t) [2]: 5750 ng·h/mL |
| CC(C)NCC(O)COc1cccc2ccccc12 (stereo not drawn) [Propranolol, propranolol, reference compound] | > 20 |  |  |  |  |  |  |
| CC(C)(O)Cn1c2ccccc2c2cc(NC(=O)c3ccccc3C(F)(F)F)ccc21 [Compound 2, N-[9-(2-hydroxy-2-methylpropyl)-9H-carbazol-3-yl]-2-(trifluoro-methyl)benzamide] | > 20 | 82 | 68 | 2300 | > 100000 | 179 to 181 | bioavailability / absorption in words [2]: good bioavailability characteristics; Cmax [2]: 984 ng/mL; Tmax [2]: 4.3 h; AUC(0-t) [2]: 5400 ng·h/mL |
